From paper PMC12150283, “Synthesis of new Ag(I) and Cd(II) hydrozanomide-based complexes with antibacterial and anticancer properties” (RSC Advances, 2025) come the findings set out here.

Series [1] has as its system B. subtilis ATCC 6633. As to the kind of experiment: Diffusion-well method, inhibition zones. The series is classed as cell-based, Bacillus subtilis. Conditions: 500 µg/mL, wells 10 mm. The protocol: (§1) The antibacterial activity of tested samples was assessed against both gram-positive bacteria (Staphylococcus aureus ATCC 25923, Staphylococcus aureus ATCC 6538, Staphylococcus epidermidis ATCC 12228, Enterococcus faecalis ATCC 29212, Listeria monocytogenes ATCC 19115, Bacillus subtilis ATCC 6633, Bacillus cereus ATCC 10876) and gram-negative bacteria (Escherichia coli ATCC 10530, Salmonella typhimurium ATCC 14028). Antibacterial properties were evaluated using both the dilution method (employing DMSO and 96-well plates) and the diffusion-well method (using Mueller Hinton Agar, Merck, Germany).
(§2) 24 hour bacterial cultures with a density of 1–2 × 10^8 CFU mL^−1 were plated (0.1 mL) on Mueller–Hinton Agar (Merck, Germany). Subsequently, wells with a diameter of 10 mm were cut out from and filled with 100 μL of the tested compound at a concentration of 10–500 μg mL^−1 (diluted in DMSO). After an 18-hour incubation at either 30 °C (for Bacillus ssp.) or 37 °C (for other tested microorganisms), the inhibition zones around the wells were measured, and the results were expressed in millimetres (Table S9 ^†).

Series [2] deals with S. epidermidis ATCC 12228. The series can be described thus: Diffusion-well method, inhibition zones. The series is classed as cell-based, Staphylococcus epidermidis. Conditions: 500 µg/mL, wells 10 mm. The procedure:
as §1, §2

For series [3], the system named is Enterococcus faecalis ATCC 29212. The series can be described thus: MIC determination. The format is cell-based. Conditions: E. faecalis ATCC 29212; 18 h. The gist of the method: (§3)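 Agar well-diffusion on Mueller–Hinton agar, inoculum 1.5 × 10^8 CFU mL^−1 (McFarland 0.5), per EUCAST. Compounds in DMSO were added to 10 mm wells, and plates were incubated 18 h at 30 °C (Bacillus subtilis) or 37 °C (others). MIC (μg mL^−1) = lowest concentration preventing growth; three independent replicates.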

In series [4] the test system is Staphylococcus aureus ATCC 25923. The series can be described thus: MIC determination. The format is cell-based. Conditions: S. aureus ATCC 25923, 18 h. In a few lines: as §3
For series [5], the system named is Bacillus subtilis ATCC 6633. The series can be described thus: MIC determination. The series is classed as cell-based. Conditions: 18 h. The gist of the method:
as §3

The subject of series [6] is Listeria monocytogenes ATCC 19115. The series can be described thus: MIC determination. The format is cell-based. Conditions: Listeria monocytogenes ATCC 19115; 18 h. The gist of the method:
as §3

In series [7] the test system is Escherichia coli ATCC 10530. As to the kind of experiment: MIC determination. Conditions: Escherichia coli ATCC 10530; 18 h. The series is classed as cell-based. The gist of the method: as §3
In series [8] the test system is Bacillus cereus ŁOCK 0807. As to the kind of experiment: MIC determination. Conditions: Bacillus cereus ŁOCK 0807; 18 h. The series is classed as cell-based.
Series [9] relates to Staphylococcus epidermidis ATCC 12228. As to the kind of experiment: MIC determination. The format is cell-based. Conditions: S. epidermidis ATCC 12228; 18 h. In a few lines: as §3
Series [10] concerns Salmonella typhimurium ATCC 14028. The series can be described thus: MIC determination. Conditions: S. typhimurium ATCC 14028, 18 h. The series is classed as cell-based. In a few lines: as §3
For series [11], the system named is Staphylococcus aureus ATCC 6538. The series can be described thus: MIC determination. The format is cell-based. Conditions: S. aureus ATCC 6538; 18 h. In a few lines:
as §3

In series [12] the test system is L. monocytogenes ATCC 19115. As to the kind of experiment: Diffusion-well method, inhibition zones. Conditions: 500 µg/mL, wells 10 mm. The series is classed as cell-based, Listeria monocytogenes. The gist of the method:
(§4)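 Wells (10 mm) in Mueller–Hinton agar seeded with 0.1 mL of 24 h culture at 1–2 × 10^8 CFU mL^−1 were filled with 100 μL compound at 10–500 μg mL^−1 in DMSO. Inhibition zones measured in mm after 18 h at 30 °C (Bacillus) or 37 °C (others).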

Series [13] relates to E. coli ATCC 10530. The series can be described thus: Diffusion-well method, inhibition zones. The format is cell-based, Escherichia coli. Conditions: 500 µg/mL, wells 10 mm. In a few lines:
as §4

Series [14] deals with B. cereus ŁOCK 0807. As to the kind of experiment: Diffusion-well method, inhibition zones. The format is cell-based, Bacillus cereus. Conditions: 500 µg/mL, wells 10 mm.
Series [15] can be described thus: Time-dependent UV-vis solution stability in DMSO. The format is physicochemical. Conditions: 0 min to 48 h, room temperature. The text has this:
The stability of metal complexes is a crucial property that provides insight into their interactions with biological molecules, as it directly impacts their reactivity, bioavailability, and effectiveness in therapeutic applications. Additionally, the solubility of these complexes in dimethyl sulfoxide (DMSO) is of considerable importance, as solubility data are essential for optimizing storage conditions and ensuring compatibility with biological assays.[39] DMSO, a widely used solvent in drug discovery, serves as a medium that supports the stability and bioavailability of complexes under assay conditions, which is critical for maintaining the integrity of analytical protocols and enabling accurate assessments of biological activity. For the obtained complexes, the time-dependent UV-vis investigations in DMSO (Fig. 5 and S9 ^†) were carried out from 0 min to 48 h (0 min, 30 min, 1 h, 2 h, 3 h, 24 h, 48 h).
The sample solutions (50 μL (1.0 × 10^−3 M)) of the complexes were prepared in DMSO (Sigma Aldrich, ≥99.9%). The absorption spectra of the complexes were measured with increasing time (0 min, 30 min, 60 min, 2 h, 3 h, 24 h, 48 h) at room temperature. All measurements were performed on the Shimadzu UV-2401PC.

Series [16] relates to S. Typhimurium ATCC 14028. The series can be described thus: Diffusion-well method, inhibition zones. The series is classed as cell-based, Salmonella typhimurium. Conditions: 500 µg/mL, wells 10 mm. The procedure:
as §1, §2

The subject of series [17] is S. aureus ATCC 25923. The series can be described thus: Diffusion-well method, inhibition zones. Conditions: 500 µg/mL, wells 10 mm. The format is cell-based, Staphylococcus aureus. The gist of the method: as §4
Series [18] concerns S. aureus ATCC 6538. The series can be described thus: Diffusion-well method, inhibition zones. The format is cell-based, Staphylococcus aureus. Conditions: 500 µg/mL, wells 10 mm. In a few lines:
as §4

In general, MIC refers to the lowest concentration found to suppress growth. Low readings indicate inhibition by little substance, high ones a need for much substance. For the compound `NC(=NN=Cc1ccccc1)c1cncc(Cl)n1.O.O=[N+]([O-])[O-].[Ag+]` [Complex 1, AgL1NO3 × H2O], the Inhibition zone in series [1] was determined as 17 mm; in series [2] it was 18 mm; in [12], 19 mm; in series [13] it was 20 mm; in [14], 17 mm; in [16], 17 mm. In addition, the values for the Inhibition zone in [17] and in series [18] were 20 mm and 16 mm, respectively. Also, the MIC in series [3] was 50 µg/mL; in series [4] it was below 10 µg/mL; in series [4] (listed as 1), below 10 µg/mL; in series [5], 50 µg/mL; in series [6] it was below 10 µg/mL; in [7], below 10 µg/mL. Moreover, the MIC is 50 µg/mL in series [8]; 10 µg/mL in [9]; below 10 µg/mL in [10]; below 10 µg/mL in series [10] (listed as 1); below 10 µg/mL in [11]. The compound further gave a hypochromic effect in series [15] of 0.84%.
